# Assay results reported in US12415799B2, “Indazole-fused cyclic compound” (Zhejiang Yangli Pharmaceutical Technology Co., Ltd., priority 2020, dated 2025).
# Assay: In vivo pharmacokinetics study in dogs
# Design: species or system beagle dogs
# Text: Experimental purposes: To test the drug concentration in plasma of beagle dogs at different times after intravenous and intragastric administration of the test compound by LC/MS/MS using beagle dogs as the experimental animals. To study the pharmacokinetics of the test compound in beagle dogs in vivo and evaluate their pharmacokinetic characteristics.
# Two healthy male and two female beagle dogs were divided into two groups according to the principle of similar body weight, with one male and one female in IV group and one male and one female in PO group. Animals were purchased from Beijing Marshall Biotechnology Co., Ltd.
# IV group: Appropriate number of samples were weighed and prepared into 1 mg/mL solution respectively, and the mixture was stirred and ultrasonicated to reach a clear state, and the solvent was 10% HP-β-CD, and the pH value was adjusted to 5.74.
# PO group: Appropriate amount of the solution prepared in IV group was diluted to 0.2 mg/mL with 10% HP-β-CD, and the pH value was adjusted to 5.8.
# Administration: After fasting overnight, IV group was administered intravenously, and the dosage of the test compound was 1 mg/kg; PO group was administered intragastrically, and the dosage of the test compound was 2 mg/kg.
# After the beagle dogs in the intravenous injection group were given the test compound respectively, and 200 μL of blood was collected from the peripheral vein at 0.0833, 0.25, 0.5, 1, 2, 4, 6, 8, 12 and 24 hours, and placed in a commercialized anticoagulant tube added with EDTA-K2 in advance. After intragastric administration of the test compound, 200 μL of blood was collected from the peripheral vein at 0.25, 0.5, 1, 2, 4, 6, 8, 12 and 24 hours, respectively, and placed in a commercialized anticoagulant tube added with EDTA-K2 in advance. After centrifugation (3,200 g, 4° C., 10 minutes), the plasma was collected, transferred to a pre-cooled centrifuge tube, quickly frozen in dry ice, and stored in a refrigerator at −60° C. or lower, until LC-MS/MS analysis. Animals were allowed to eat 4 hours after administration. LC/MS/MS method was used to determine the content of the test compound in the plasma of beagle dogs after intravenous and intragastric administration. The linear range of the method was 2.00 to 2000 nM.
compound,measurement,setting,value
FCCCN1CC[C@H](Nc2cnc(C3=C(CC(F)(F)F)CCCc4c3ccc3[nH]nc(F)c43)cn2)C1 [Compound 11A],AUC0-last,i.v. 1 mg/kg,5.078 µM·h
same,Cl,i.v. 1 mg/kg,3.44 mL/min/kg
same,T1/2,i.v. 1 mg/kg,23.1 h
same,Vdss,i.v. 1 mg/kg,6.60 L/kg
same,AUC0-last,p.o. 2 mg/kg,7.963 µM·h
same,Cmax,p.o. 2 mg/kg,495 nM
same,T1/2,p.o. 2 mg/kg,19.2 h
same,F %,p.o. 2 mg/kg vs i.v. 1 mg/kg,78.2%
